Results on 69 molecules are retold here after US20130012546A1 (priority 2009, published 2013).

One data set deals with Phytophthora infestans. The data set is classed as in vivo. The note with it: tomato plants, preventive spray, 100 ppm of active ingredient, evaluated 7 days after inoculation.
A short description of another data set: logP(HCOOH) by HPLC. The note with it: HPLC on reversed phase columns. The format is physicochemical.
Setting [1] is: pH 2.7, 0.1% formic acid in water / acetonitrile, linear gradient 10% to 95% acetonitrile, EEC directive 79/831 Annex V.A8.
[2] abbreviates: pH 2.7, 0.1% formic acid in water / acetonitrile gradient.

In the data set on Phytophthora infestans, `Cc1nnnn1C(=NOCc1cccc(NC(=O)OCCC2CCCCC2)n1)c1ccccc1` [Example 15] yielded an Efficacy % of 95%. This molecule also came in with a log p in “logP(HCOOH) by HPLC” (setting [1]) of 5.19.
`C=CCCOCC(=O)Nc1nc(CO/N=C(/c2ccccc2)n2nnnc2C)cs1` [Example 44] showed an Efficacy % in the data set on Phytophthora infestans of 93%. The molecule also had a log p in the data set “logP(HCOOH) by HPLC” (setting [1]) of 3.23.
Take `C=C=CCCC(=O)Nc1cccc(CON=C(c2ccccc2)n2nnnc2C)n1` [compound 141]: the log p in the data set “logP(HCOOH) by HPLC” (setting [1]) is listed as 3.23.
`C=C=CCCCOC(=O)Nc1nc(CON=C(c2ccccc2)c2nnnn2C)cs1` [compound 140] yielded a log p in the data set “logP(HCOOH) by HPLC” (setting [1]) of 3.69.
`Cc1nnnn1C(=NOCc1cccc(NC(=O)C(C)OC2CCC2)n1)c1ccccc1` (centres unmarked) [compound 185] returned a log p in the data set “logP(HCOOH) by HPLC” (setting [1]) of 3.74.
Still for that read-out and setting: next, `CCC(OC1CCCC1)C(=O)Nc1nc(CON=C(c2ccccc2)c2nnnn2C)cs1` (centres unmarked) [compound 175]: 4.16; `C#CCOC(CC)C(=O)Nc1nc(CON=C(c2ccccc2)n2nnnc2C)cs1` (centres unmarked) [compound 115]: 3.11.
In the data set “logP(HCOOH) by HPLC” (setting [1]), `CON=C(C(=O)Nc1cccc(CON=C(c2ccccc2)n2nnnc2C)n1)c1ccc(Cl)cc1` [compound 135] returned a log p of 4.51.
In the data set “logP(HCOOH) by HPLC” (setting [1]), `Cc1nnnn1C(=NOCc1csc(NC(=O)OCCC2CCCC2)n1)c1ccccc1` [compound 146] yielded a log p of 4.33.
The same measure, in the same setting: next, `Cc1nnnn1C(=NOCc1cccc(NC(=O)OC2CC3CCC2(C)C3(C)C)n1)c1ccccc1` (centres unmarked) [compound 143]: 5.3; `CON=C(C(=O)Nc1nc(CON=C(c2ccccc2)n2nnnc2C)cs1)c1ccc(Br)cc1` [Example 29]: 4.41.
The molecule `CCC(OC1CCC1)C(=O)Nc1cccc(CON=C(c2ccccc2)c2nnnn2C)n1` (centres unmarked) [compound 194] yielded a log p in “logP(HCOOH) by HPLC” (setting [2]) of 4.11.
In the case of `Cc1nnnn1C(=NOCc1csc(NC(=O)OCCCC2CCCC2)n1)c1ccccc1` [Example 65], the log p in “logP(HCOOH) by HPLC” (setting [1]) is given as 4.77.
With `Cn1nnnc1C(=NOCc1csc(NC(=O)OC2CC3CCC2(C)C3(C)C)n1)c1cccc(F)c1` (centres unmarked) [Example 105], the Efficacy % in the data set on Phytophthora infestans stood at 80%.
`CC(OC(=O)Nc1cccc(CON=C(c2ccccc2)c2nnnn2C)n1)C1CCCCC1` (centres unmarked) [compound 161] displayed a log p in the data set “logP(HCOOH) by HPLC” (setting [1]) of 4.98.
`C=CCCCOCC(=O)Nc1cccc(CON=C(c2ccccc2)n2nnnc2C)n1` [compound 112] registered a log p in “logP(HCOOH) by HPLC” (setting [1]) of 3.83.
Molecule `CC1=C(CC(C)OCC(=O)Nc2nc(CON=C(c3ccccc3)c3nnnn3C)cs2)C1(C)C` (centres unmarked) [compound 218] came in with a log p in the data set “logP(HCOOH) by HPLC” (setting [2]) of 4.83.
In “logP(HCOOH) by HPLC” (setting [1]), `Cc1nnnn1C(=NOCc1csc(NC(=O)OCCCC2CC2)n1)c1ccccc1` [Example 68] showed a log p of 3.9.
The molecule `CC=NOCCOC(=O)Nc1cccc(CON=C(c2ccccc2)c2nnnn2C)n1` [compound 214] registered a log p in “logP(HCOOH) by HPLC” (setting [2]) of 2.96.
The same measure, in the same setting: next, `CC1=C(CC(C)OC(=O)Nc2nc(CON=C(c3ccccc3)c3nnnn3C)cs2)C1` (centres unmarked) [compound 210]: 4.06.
For `CCC(OC1CCCCCC1)C(=O)Nc1nc(CON=C(c2ccccc2)n2nnnc2C)cs1` (centres unmarked) [compound 169], the log p in “logP(HCOOH) by HPLC” (setting [1]) is on record as 4.93.
Same read-out and setting: next, `CON=C(C(=O)Nc1nc(CON=C(c2ccccc2)c2nnnn2C)cs1)c1ccc(C)cc1` [compound 129]: 4.05.
As for `CC1=C(CC(C)OCC(=O)Nc2nc(CON=C(c3ccccc3)c3nnnn3C)cs2)C1` (centres unmarked) [compound 219], the log p in “logP(HCOOH) by HPLC” (setting [2]) is listed as 4.03.
Same read-out and setting: next, `Cn1nnnc1C(=NOCc1csc(NC(=O)CON=C2CCCCC2)n1)c1ccccc1` [compound 200]: 3.46.
With `Cc1nnnn1C(=NOCc1csc(NC(=O)OCCC2CC2)n1)c1ccccc1` [compound 145], in “logP(HCOOH) by HPLC” (setting [1]), the log p is on record as 3.5.
On the same count and under the same terms, the same measure for `Cn1nnnc1C(=NOCc1csc(NC(=O)OCCCC2CCCC2)n1)c1ccccc1` [Example 73]: 4.7; for `Cn1nnnc1C(=NOCc1cccc(NC(=O)OCCC2CC2)n1)c1ccccc1` [compound 159]: 3.72; for `Cc1nnnn1C(=NOCc1csc(NC(=O)OC(C)C2CCCCC2)n1)c1ccccc1` (centres unmarked) [compound 147]: 4.66.
In the case of `CON=C(C(=O)Nc1cccc(CON=C(c2ccccc2)n2nnnc2C)n1)c1ccccc1Cl` [compound 131], the log p in the data set “logP(HCOOH) by HPLC” (setting [1]) stood at 4.18.
Still for that read-out and setting: next, `CCON=C(C(=O)Nc1nc(CON=C(c2ccccc2)n2nnnc2C)cs1)c1ccc(C)cc1` [compound 126]: 4.13.
The same measure, in the same setting: next, `C#CCOC(C(=O)Nc1nc(CON=C(c2ccccc2)c2nnnn2C)cs1)C(C)C` (centres unmarked) [compound 117]: 3.44; `CCC(OC1CCCCC1)C(=O)Nc1cccc(CON=C(c2ccccc2)n2nnnc2C)n1` (centres unmarked) [compound 186]: 4.91.
On the same count and under the same terms, next, `Cc1nnnn1C(=NOCc1csc(NC(=O)OCC2CCCC2)n1)c1ccccc1` [Example 66]: 3.99.
In “logP(HCOOH) by HPLC” (setting [1]), `Cc1nnnn1C(=NOCc1cccc(NC(=O)COC2CC(C)CCC2C(C)C)n1)c1ccccc1` (centres unmarked) [Example 108] showed a log p of 5.95.
The same measure, in the same setting: the same measure for `CCC(OC1CCCCC1)C(=O)Nc1nc(CON=C(c2ccccc2)n2nnnc2C)cs1` (centres unmarked) [compound 166]: 4.56.
Still for that read-out and setting: next, `Cc1nnnn1C(=NOCc1csc(NC(=O)COC2CC(C)CCC2C(C)C)n1)c1ccccc1` (centres unmarked) [Example 106]: 5.48.
Take `CC1=C(CC(C)OC(=O)Nc2nc(CON=C(c3ccccc3)c3nnnn3C)cs2)C1(C)C` (centres unmarked) [compound 209]: the log p in “logP(HCOOH) by HPLC” (setting [2]) is 4.68.
`CCON=C(C(=O)Nc1cccc(CON=C(c2ccccc2)n2nnnc2C)n1)c1ccc(Cl)cc1` [compound 133] gave a log p in the data set “logP(HCOOH) by HPLC” (setting [1]) of 4.93.
The same measure, in the same setting: next, `CCC(OC1CCC1)C(=O)Nc1nc(CON=C(c2ccccc2)n2nnnc2C)cs1` (centres unmarked) [compound 167]: 3.83.
For `Cc1nnnn1C(=NOCc1cccc(NC(=O)C(C)OC2CCC(C)CC2)n1)c1ccccc1` (centres unmarked) [compound 191], the log p in “logP(HCOOH) by HPLC” (setting [1]) is 4.93.
Same read-out and setting: the same measure for `CCC(OC1CCCC1)C(=O)Nc1nc(CON=C(c2ccccc2)n2nnnc2C)cs1` (centres unmarked) [compound 168]: 4.24.
The molecule `C#CCOC(CC)C(=O)Nc1nc(CON=C(c2ccccc2)c2nnnn2C)cs1` (centres unmarked) [compound 116] returned a log p in “logP(HCOOH) by HPLC” (setting [1]) of 3.08.
Still for that read-out and setting: next, `Cc1nnnn1C(=NOCc1csc(NC(=O)OC(C)C2CCCC2)n1)c1ccccc1` (centres unmarked) [compound 148]: 4.3; `Cc1nnnn1C(=NOCc1csc(NC(=O)C(C)OC2CCC2)n1)c1ccccc1` (centres unmarked) [compound 165]: 3.46; `Cc1nnnn1C(=NOCc1cccc(NC(=O)C(C)OC2CCCC(C)C2)n1)c1ccccc1` (centres unmarked) [compound 190]: 4.96.
Still for that read-out and setting: next, `Cc1nnnn1C(=NOCc1cccc(NC(=O)OCCC2CC2)n1)c1ccccc1` [compound 155]: 3.81.
The molecule `CC1=C(CC(C)OC(=O)Nc2nc(CON=C(c3ccccc3)n3nnnc3C)cs2)C1` (centres unmarked) [compound 208] registered a log p in the data set “logP(HCOOH) by HPLC” (setting [2]) of 4.11.
`CC(=NOCC(=O)Nc1cccc(CON=C(c2ccccc2)n2nnnc2C)n1)C(C)(C)C` [compound 204]: in the data set “logP(HCOOH) by HPLC” (setting [2]), the log p stood at 4.34.
`CON=C(C(=O)Nc1cccc(CON=C(c2ccccc2)n2nnnc2C)n1)c1ccc(Cl)cc1` [compound 132] gave a log p in the data set “logP(HCOOH) by HPLC” (setting [1]) of 4.69.
In turn, `CC1=C(CC(C)OCC(=O)Nc2nc(CON=C(c3ccccc3)n3nnnc3C)cs2)C1` (centres unmarked) [compound 215] gave a log p in the data set “logP(HCOOH) by HPLC” (setting [2]) of 4.11.
Turning to `Cn1nnnc1C(=NOCc1csc(NC(=O)OCCCC#C[Si](C)(C)C)n1)c1ccccc1` [compound 228], in the data set “logP(HCOOH) by HPLC” (setting [2]), the log p is given as 4.71.
`Cc1nnnn1C(=NOCc1cccc(NC(=O)C(C)OC2CCCCC2)n1)c1ccccc1` (centres unmarked) [compound 182]: the log p in the data set “logP(HCOOH) by HPLC” (setting [1]) was 4.46.
Same read-out and setting: next, `Cn1nnnc1C(=NOCc1csc(NC(=O)COCC#C[Si](C)(C)C)n1)c1ccccc1` [compound 118]: 3.7.
Still for that read-out and setting: the same measure for `C#CCOC(C(=O)Nc1cccc(CON=C(c2ccccc2)n2nnnc2C)n1)C(C)C` (centres unmarked) [compound 120]: 3.7; for `CCON=C(C(=O)Nc1nc(CON=C(c2ccccc2)c2nnnn2C)cs1)c1ccc(Cl)cc1` [compound 128]: 4.56.
`CON=C(C(=O)Nc1cccc(CON=C(c2ccccc2)n2nnnc2C)n1)c1ccc(F)cc1` [compound 136] yielded a log p in “logP(HCOOH) by HPLC” (setting [1]) of 4.11.
In the data set on Phytophthora infestans, `Cn1nnnc1C(=NOCc1csc(NC(=O)OC2CC3CCC2(C)C3(C)C)n1)c1ccccc1` (centres unmarked) [Example 104] yielded an Efficacy % of 93%.
In the data set “logP(HCOOH) by HPLC” (setting [1]), `CCON=C(C(=O)Nc1cccc(CON=C(c2ccccc2)c2nnnn2C)n1)c1ccc(Cl)cc1` [compound 137] showed a log p of 4.83.
Still for that read-out and setting: next, `Cn1nnnc1C(=NOCc1csc(NC(=O)OCCC2CCCC2)n1)c1ccccc1` [compound 150]: 4.26.
In “logP(HCOOH) by HPLC” (setting [1]), `Cc1nnnn1C(=NOCc1cccc(NC(=O)C(C)OC2CCCCCC2)n1)c1ccccc1` (centres unmarked) [compound 184] came in with a log p of 4.86.
Still for that read-out and setting: the same measure for `Cc1nnnn1C(=NOCc1cccc(NC(=O)OCCC2CCCC2)n1)c1ccccc1` [compound 156]: 4.71; for `Cn1nnnc1C(=NOCc1cccc(NC(=O)OCC2CCCC2)n1)c1ccccc1` [Example 70]: 4.25.
`C=C=CCCCOC(=O)Nc1cccc(CON=C(c2ccccc2)n2nnnc2C)n1` [compound 142] returned a log p in “logP(HCOOH) by HPLC” (setting [1]) of 4.01.
Still for that read-out and setting: the same measure for `Cc1nnnn1C(=NOCc1cccc(NC(=O)C(C)OC2CCCC2)n1)c1ccccc1` (centres unmarked) [compound 183]: 4.12; for `CON=C(C(=O)Nc1nc(CON=C(c2ccccc2)n2nnnc2C)cs1)c1ccc(C)cc1` [compound 125]: 3.85; for `CC(OC(=O)Nc1cccc(CON=C(c2ccccc2)c2nnnn2C)n1)C1CCCC1` (centres unmarked) [compound 162]: 4.61.
As for `CC1CCC(OC(C)C(=O)Nc2cccc(CON=C(c3ccccc3)c3nnnn3C)n2)CC1` (centres unmarked) [compound 198], in the data set “logP(HCOOH) by HPLC” (setting [2]), the log p came to 4.81.
On to `CC(OC(=O)Nc1nc(CON=C(c2ccccc2)c2nnnn2C)cs1)C1CCCCC1` (centres unmarked) [compound 151], for which the log p in “logP(HCOOH) by HPLC” (setting [1]) stood at 4.58.
Turning to `Cc1nnnn1C(=NOCc1cccc(NC(=O)OC(C)C2CCCC2)n1)c1ccccc1` (centres unmarked) [compound 158], in the data set “logP(HCOOH) by HPLC” (setting [1]), the log p is given as 4.71.
